In ChEMBL document CHEMBL1130891, “Solid-phase synthesis of N-substituted amidinophenoxy pyridines as factor XA inhibitors” (Bioorg Med Chem Lett, 1998):

Biological target: Coagulation factor X (Homo sapiens, UniProt P00742)
Experiment: Binding affinity was evaluated against Coagulation factor X

Sequence of Coagulation factor X (P00742 41-179 limits assumed): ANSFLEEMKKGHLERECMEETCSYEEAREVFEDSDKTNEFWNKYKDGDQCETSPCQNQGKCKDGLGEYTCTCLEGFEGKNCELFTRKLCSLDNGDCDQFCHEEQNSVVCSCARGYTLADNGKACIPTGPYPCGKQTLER
Sequence of Coagulation factor X (P00742 235-488 limits assumed): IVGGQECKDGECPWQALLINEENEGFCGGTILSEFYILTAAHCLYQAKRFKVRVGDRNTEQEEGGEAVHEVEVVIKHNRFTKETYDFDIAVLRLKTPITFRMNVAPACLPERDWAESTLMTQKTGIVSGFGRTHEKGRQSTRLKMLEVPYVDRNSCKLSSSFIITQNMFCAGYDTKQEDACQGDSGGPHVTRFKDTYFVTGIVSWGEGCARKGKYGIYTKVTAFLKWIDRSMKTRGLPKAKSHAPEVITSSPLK

SMILES | Ki [µM]
CC(=N)N1CCC(Oc2nc(Oc3cccc(C(=N)N)c3)c(F)c(C)c2F)C1 (stereo not drawn) | > 5
Cc1c(F)c(Oc2cccc(C(=N)N)c2)nc(OC2CCNC2)c1F (stereo not drawn) | > 5
Cc1c(F)c(Oc2cccc(C(=N)N)c2)nc(N2CCN(C)CC2)c1F | > 5
Cc1c(F)c(NCCN(C)C)nc(Oc2cccc(C(=N)N)c2)c1F | > 5
CCOC(=O)C1CCCN(c2nc(Oc3cccc(C(=N)N)c3)c(F)c(C)c2F)C1 (stereo not drawn) | > 5
N=C(N)c1ccccc1 [BENZAMIDINE] | 0.41
Cc1c(F)c(NC2CCCCC2)nc(Oc2cccc(C(=N)N)c2)c1F | > 5
Cc1c(F)c(Oc2cccc(C(=N)N)c2)nc(N2CCN(c3ccco3)CC2)c1F | > 5
Cc1c(F)c(Oc2cccc(C(=N)N)c2)nc(N2CCC[C@H]2CO)c1F | > 5
Cc1cccc(C)c1N1CCN(c2nc(Oc3cccc(C(=N)N)c3)c(F)c(C)c2F)CC1 | > 5
N=C(N)c1ccc(/C=C2/CCCC/C(=C/c3ccc(C(=N)N)cc3)C2=O)cc1 | 0.013
Cc1c(F)c(Oc2cccc(C(=N)N)c2)nc(N2CCN(C3CCCCC3)CC2)c1F | 0.495
N=C(N)c1cccc(COc2ccccc2)c1 | 0.0068
Cc1c(F)c(Oc2cccc(C(=N)N)c2)nc(N2CCN(CC(=O)N3CCOCC3)CC2)c1F | > 5
Cc1c(F)c(Oc2cccc(C(=N)N)c2)nc(N2CCC(C)(c3ccccc3)CC2)c1F | 0.56
CCCOCCNc1nc(Oc2cccc(C(=N)N)c2)c(F)c(C)c1F | > 5
Cc1c(F)c(Oc2cccc(C(=N)N)c2)nc(N2CCN(c3ccc4c(c3)OCO4)CC2)c1F | > 5
Cc1c(F)c(NCCCN2CCCC2=O)nc(Oc2cccc(C(=N)N)c2)c1F | > 5
